Results: US11957687B2 (REGENERON PHARMACEUTICALS, INC., priority 2019, dated 2024)

Legend:
Format in all cases: biochemical
HSD17B2 = HSD17B2 (Homo sapiens (Human), UniProt P37059); test: HSD17B2 enzymatic blocking assay; conditions: 1.8 μM Estradiol, 650 μM NAD; read-out: Inhibition of HSD17B2 IC50
Outline: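 Mammalian-expressed enzyme at 2 ng/μL in 50 mM Tris-HCl pH 7.5 with detergents/BSA, preincubated 15 min at 20° C. with compound (10-point titration). Reaction with 1.8 μM estradiol and 650 μM NAD ran 45 min at 20° C.; NADH measured by NADH-Glo luminescence and IC50 derived.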

HSD17B13 = HSD17B13 (Homo sapiens (Human), UniProt Q7Z5P4); test: HSD17B13 enzymatic inhibition assay (150 nM or 50 nM HSD17B13); conditions: 50 nM HSD17B13; read-out: Inhibition of 50 nM of HSD17B13 IC50
Sequence of HSD17B13 (Q7Z5P4 other isoform, or with tags, fused parts or gaps): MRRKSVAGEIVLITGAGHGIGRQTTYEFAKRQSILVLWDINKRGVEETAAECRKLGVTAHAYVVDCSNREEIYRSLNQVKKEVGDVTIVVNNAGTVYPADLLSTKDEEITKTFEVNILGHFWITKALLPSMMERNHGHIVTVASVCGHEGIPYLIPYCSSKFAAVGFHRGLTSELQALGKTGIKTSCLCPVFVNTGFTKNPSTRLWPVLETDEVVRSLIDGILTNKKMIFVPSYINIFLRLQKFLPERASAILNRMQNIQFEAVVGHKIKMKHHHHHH

HSD17B1 = HSD17B1 (Homo sapiens (Human), UniProt P14061); test: HSD17B1 enzymatic blocking assay; conditions: 25 μM Estradiol, 500 μM NAD; read-out: Inhibition of HSD17B1 IC50
Sequence of HSD17B1 (P14061 other isoform, or with tags, fused parts or gaps): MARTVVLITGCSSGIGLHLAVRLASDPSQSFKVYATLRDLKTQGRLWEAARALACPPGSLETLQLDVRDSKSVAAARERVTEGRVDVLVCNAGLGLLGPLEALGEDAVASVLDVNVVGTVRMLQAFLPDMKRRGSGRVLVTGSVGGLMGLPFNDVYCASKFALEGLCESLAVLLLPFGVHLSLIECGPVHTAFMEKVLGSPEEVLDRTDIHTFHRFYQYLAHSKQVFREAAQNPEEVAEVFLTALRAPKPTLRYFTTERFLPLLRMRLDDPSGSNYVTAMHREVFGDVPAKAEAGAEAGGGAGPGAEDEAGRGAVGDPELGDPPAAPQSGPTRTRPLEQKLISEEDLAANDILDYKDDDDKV
Description: To screen compounds of the disclosure for their ability to block HSD17B1 function, an enzymatic blocking assay was performed. For the assay, HSD17B1 activity was measured by detecting NADH formation from oxidation of Estradiol using a NADH Glo luminescence assay (Promega, #Cat. No. G9062). […] Compounds were incubated with the enzyme for 30 minutes at room temperature. […] DMSO at a concentration of 0.5% was used as a negative control and a ‘no substrate’ control was used a positive control in the assay. Detection reagent was then added as per manufacturer's instructions, and the plate was subsequently incubated in the dark for 1 hour at room temperature, NADH generated was detected in the luminescence mode on the Envision Perkin Elmer plate reader. The IC50 values were determined using Dotmatics analysis software.

Sequence of HSD17B2 (P37059 other isoform, or with tags, fused parts or gaps): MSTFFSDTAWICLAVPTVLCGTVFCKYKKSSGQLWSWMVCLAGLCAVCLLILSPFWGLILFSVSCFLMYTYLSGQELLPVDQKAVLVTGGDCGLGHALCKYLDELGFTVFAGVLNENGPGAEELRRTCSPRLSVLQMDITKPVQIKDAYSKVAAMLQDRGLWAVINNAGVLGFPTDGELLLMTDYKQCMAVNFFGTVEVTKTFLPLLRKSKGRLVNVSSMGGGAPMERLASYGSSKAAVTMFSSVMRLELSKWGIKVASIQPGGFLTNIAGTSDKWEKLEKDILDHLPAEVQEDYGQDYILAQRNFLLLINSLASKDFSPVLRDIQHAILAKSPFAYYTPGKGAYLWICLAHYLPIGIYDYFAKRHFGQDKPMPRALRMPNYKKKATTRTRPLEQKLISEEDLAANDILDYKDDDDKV

Structure (SMILES): Cc1ccc2c(c1)C(NC(=O)c1ccc(C(F)(F)F)[nH]c1=O)c1ccccc1-2 (stereo not drawn) [Compound 417, N-(2-methyl-9H-fluoren-9-yl)-2-oxo-6-(trifluoromethyl)-1,2-dihydropyridine-3-carboxamide]
- IC50 (HSD17B2): 47.9 µM
- IC50 (HSD17B13): 0.1 µM
- IC50 (HSD17B1): 13.5 µM

Structure (SMILES): CNc1cccc(C(NC(=O)c2ccc(C(F)(F)F)[nH]c2=O)c2ccc(C)cc2)c1 (stereo not drawn) [Compound 419, N-((3-(methylamino)phenyl)(p-tolyl)methyl)-2-oxo-6-(trifluoromethyl)-1,2-dihydropyridine-3-carboxamide]
- IC50 (HSD17B2): > 100 µM
- IC50 (HSD17B13): 0.63 µM
- IC50 (HSD17B1): > 30 µM

Structure (SMILES): Cc1ccc(C(NC(=O)c2ccc(C(F)(F)F)[nH]c2=O)C2CCCCC2)cc1 (stereo not drawn) [Compound 421, N-(cyclohexyl(p-tolyl)methyl)-2-oxo-6-(trifluoromethyl)-1,2-dihydropyridine-3-carboxamide]
- IC50 (HSD17B2): 11.3 µM
- IC50 (HSD17B13): 0.36 µM
- IC50 (HSD17B1): 25.1 µM

Structure (SMILES): Cc1ccc(C(CC2CCCCC2)NC(=O)c2ccc(C(F)(F)F)[nH]c2=O)cc1 (stereo not drawn) [Compound 422, N-(2-cyclohexyl-1-(p-tolyl)ethyl)-2-oxo-6-(trifluoromethyl)-1,2-dihydropyridine-3-carboxamide]
- IC50 (HSD17B2): 17.3 µM
- IC50 (HSD17B13): 0.16 µM
- IC50 (HSD17B1): 10.7 µM

Structure (SMILES): Cc1ccc2c(c1)Oc1cc(C)ccc1C2NC(=O)c1cc(N2CCN(C)CC2)c(C(F)(F)F)[nH]c1=O [Compound 435, N-(3,6-dimethyl-9H-xanthen-9-yl)-5-(4-methylpiperazin-1-yl)-2-oxo-6-(trifluoromethyl)-1,2-dihydropyridine-3-carboxamide]
- IC50 (HSD17B2): 59.4 µM
- IC50 (HSD17B13): 0.11 µM
- IC50 (HSD17B1): 23.5 µM

Structure (SMILES): Cc1ccc2c(c1)Oc1cc(C)ccc1C2NC(=O)c1cc(N2CCCCC2)c(C(F)(F)F)[nH]c1=O [Compound 436, N-(3,6-dimethyl-9H-xanthen-9-yl)-2-oxo-5-(piperidin-1-yl)-6-(trifluoromethyl)-1,2-dihydropyridine-3-carboxamide]
- IC50 (HSD17B2): 27.3 µM
- IC50 (HSD17B13): 0.09 µM
- IC50 (HSD17B1): 6.19 µM

Structure (SMILES): Cc1ccc2c(c1)Oc1cc(C)ccc1C2NC(=O)c1cc(N2CCOCC2)c(C(F)(F)F)[nH]c1=O [Compound 438, N-(3,6-dimethyl-9H-xanthen-9-yl)-5-morpholino-2-oxo-6-(trifluoromethyl)-1,2-dihydropyridine-3-carboxamide]
- IC50 (HSD17B2): 23.5 µM
- IC50 (HSD17B13): 0.05 µM
- IC50 (HSD17B1): 10.7 µM

Structure (SMILES): CSc1cccc(C(NC(=O)c2ccc(C(F)(F)F)[nH]c2=O)c2ccc(C)cc2)c1 (stereo not drawn) [Compound 445, N-((3-(methylthio)phenyl)(p-tolyl)methyl)-2-oxo-6-(trifluoromethyl)-1,2-dihydropyridine-3-carboxamide]
- IC50 (HSD17B2): 42.9 µM
- IC50 (HSD17B13): 0.23 µM
- IC50 (HSD17B1): 14.8 µM

Structure (SMILES): Cc1ccc2c(c1)Oc1cc(C)ccc1C2NC(=O)c1cc(C2CCCCC2)c(C(F)(F)F)[nH]c1=O [Compound 460, 5-cyclohexyl-N-(3,6-dimethyl-9H-xanthen-9-yl)-2-oxo-6-(trifluoromethyl)-1,2-dihydropyridine-3-carboxamide]
- IC50 (HSD17B2): 25 µM
- IC50 (HSD17B13): 0.03 µM
- IC50 (HSD17B1): 12.9 µM

Structure (SMILES): Cc1ccc2c(c1)Oc1cc(C)ccc1C2NC(=O)c1cc(C2CCOCC2)c(C(F)(F)F)[nH]c1=O [Compound 461, N-(3,6-dimethyl-9H-xanthen-9-yl)-2-oxo-5-(tetrahydro-2H-pyran-4-yl)-6-(trifluoromethyl)-1,2-dihydropyridine-3-carboxamide]
- IC50 (HSD17B2): 45.4 µM
- IC50 (HSD17B13): 0.04 µM
- IC50 (HSD17B1): 7.64 µM

Structure (SMILES): Cc1ccc2c(c1)Sc1cc(C)ccc1C2NC(=O)c1cc(-c2ccncc2)c(C(F)(F)F)[nH]c1=O [Compound 495, N-(3,6-dimethyl-9H-thioxanthen-9-yl)-6-oxo-2-(trifluoromethyl)-1,6-dihydro-[3,4′-bipyridine]-5-carboxamide]
- IC50 (HSD17B2): 19.7 µM
- IC50 (HSD17B13): 0.03 µM
- IC50 (HSD17B1): 2.04 µM

Structure (SMILES): Cc1ccc2c(c1)Oc1cc(C)ccc1C2NC(=O)c1cc(-c2cncnc2)c(C(F)(F)F)[nH]c1=O [Compound 499, N-(3,6-dimethyl-9H-xanthen-9-yl)-2-oxo-5-(pyrimidin-5-yl)-6-(trifluoromethyl)-1,2-dihydropyridine-3-carboxamide]
- IC50 (HSD17B2): 9.8 µM
- IC50 (HSD17B13): 0.03 µM
- IC50 (HSD17B1): 4.86 µM

Structure (SMILES): Cc1ccc2c(c1)Oc1cc(C)ccc1C2NC(=O)c1cc(Cc2ccccc2)c(C(F)(F)F)[nH]c1=O [Compound 500, 5-benzyl-N-(3,6-dimethyl-9H-xanthen-9-yl)-2-oxo-6-(trifluoromethyl)-1,2-dihydropyridine-3-carboxamide]
- IC50 (HSD17B2): 14.8 µM
- IC50 (HSD17B13): 0.02 µM
- IC50 (HSD17B1): 2.67 µM

Structure (SMILES): Cc1ccc2c(c1)Oc1cc(C)ccc1C2NC(=O)c1cc(C2=CCN(C)CC2)c(C(F)(F)F)[nH]c1=O [Compound 501, N-(3,6-dimethyl-9H-xanthen-9-yl)-1′-methyl-6-oxo-2-(trifluoromethyl)-1,1′,2′,3′,6,6′-hexahydro-[3,4′-bipyridine]-5-carboxamide]
- IC50 (HSD17B2): 46 µM
- IC50 (HSD17B13): 0.34 µM
- IC50 (HSD17B1): > 30 µM

Structure (SMILES): Cc1ccc2c(c1)Oc1cc(C)ccc1C2NC(=O)c1cc(-c2ccncc2)c(C(F)(F)F)[nH]c1=O [Compound 504, N-(3,6-dimethyl-9H-xanthen-9-yl)-6-oxo-2-(trifluoromethyl)-1,6-dihydro-[3,4′-bipyridine]-5-carboxamide]
- IC50 (HSD17B2): 39.4 µM
- IC50 (HSD17B13): 0.06 µM
- IC50 (HSD17B1): 19.7 µM

Structure (SMILES): Cc1ccc2c(c1)Oc1cc(C)ccc1C2NC(=O)c1cc(-c2cnccn2)c(C(F)(F)F)[nH]c1=O [Compound 508, N-(3,6-dimethyl-9H-xanthen-9-yl)-2-oxo-5-(pyrazin-2-yl)-6-(trifluoromethyl)-1,2-dihydropyridine-3-carboxamide]
- IC50 (HSD17B2): 45.8 µM
- IC50 (HSD17B13): 0.02 µM
- IC50 (HSD17B1): 3.3 µM

Structure (SMILES): Cc1ccc2c(c1)Oc1cc(C)ccc1C2NC(=O)c1cc(-c2ncccn2)c(C(F)(F)F)[nH]c1=O [Compound 509, N-(3,6-dimethyl-9H-xanthen-9-yl)-2-oxo-5-(pyrimidin-2-yl)-6-(trifluoromethyl)-1,2-dihydropyridine-3-carboxamide]
- IC50 (HSD17B2): 11.9 µM
- IC50 (HSD17B13): 0.01 µM
- IC50 (HSD17B1): 3.48 µM

Structure (SMILES): Cc1ccc2c(c1)Oc1cc(C)ccc1C2NC(=O)c1cc(-c2ccccn2)c(C(F)(F)F)[nH]c1=O [Compound 510, N-(3,6-dimethyl-9H-xanthen-9-yl)-6′-oxo-2′-(trifluoromethyl)-1′,6′ dihydro-[2,3′-bipyridine]-5′-carboxamide]
- IC50 (HSD17B2): 5.53 µM
- IC50 (HSD17B13): 0.02 µM
- IC50 (HSD17B1): 2.19 µM

Structure (SMILES): C=CCc1cc(C(=O)NC2c3ccc(C)cc3Oc3cc(C)ccc32)c(=O)[nH]c1C(F)(F)F [Compound 511, 5-allyl-N-(3,6-dimethyl-9H-xanthen-9-yl)-2-oxo-6-(trifluoromethyl)-1,2-dihydropyridine-3-carboxamide]
- IC50 (HSD17B2): 16.2 µM
- IC50 (HSD17B13): 0.05 µM
- IC50 (HSD17B1): 6.13 µM

Structure (SMILES): CN1c2ccccc2C(NC(=O)c2ccc(C(F)(F)F)[nH]c2=O)c2ccccc21 [Compound 519, N-(10-methyl-9,10-dihydroacridin-9-yl)-2-oxo-6-(trifluoromethyl)-1,2-dihydropyridine-3-carboxamide]
- IC50 (HSD17B2): > 100 µM
- IC50 (HSD17B13): 1.35 µM
- IC50 (HSD17B1): 7.22 µM

Structure (SMILES): Cc1ccc2c(c1)Oc1cc(C)ccc1C2NC(=O)c1cc(CCc2ccccc2)c(C(F)(F)F)[nH]c1=O [Compound 520, N-(3,6-dimethyl-9H-xanthen-9-yl)-2-oxo-5-phenethyl-6-(trifluoromethyl)-1,2-dihydropyridine-3-carboxamide]
- IC50 (HSD17B2): 25.3 µM
- IC50 (HSD17B13): 0.02 µM
- IC50 (HSD17B1): 13.7 µM
